How the values were obtained:
Shigella flexneri = test: Minimal inhibitory concentration (MIC) determination; assay type: cell-based
Escherichia coli = test: as above; assay type: cell-based
Bordetella pertussis = test: as above; assay type: cell-based
[1] = target: PBP2a from Enterococcus faecalis; test: Fluorescence anisotropy direct binding assay; conditions: FA direct binding, 100 nM F-Moe, 10 mM Tris pH 8.0, 100 mM NaCl; read-out: FA_KD
Procedure: Fluorescence anisotropy measurements were carried out in triplicates in the wells of 384-well plates using a laser fluorimetry equipped with a 488 nm laser (IsoCyte, Blueshift Biotech, Inc., Sunnyvale, Calif., USA). Various buffers, salts, pH values, and divalent cations (Ca^++, Mg^++, Co^++) were optimized for fluorescence anisotropy measurements. […] The scanning focus was above the plate bottom to avoid detection interferences. Data analysis was performed with the proprietary software, BlueImage (Blueshift Biotech Inc). Fluorescence anisotropy values (A) were calculated using the equation: A=(/∥−G*/⊥)/(/∥+2G*/⊥), where /∥ is the fluorescence intensity of emitted light parallel to excitation, /⊥ is the fluorescence intensity of emitted light perpendicular to excitation, and G is the […] that corrects for instrument bias. The G factor is experimentally determined for each run using the probe-only well as the basal an isotropy.
For direct binding assay, the initial condition contained 40 μl of 100 nM F-Moe in 10 mM Tris, pH 8.0, 100 mM NaCl. After a small volume of PBP stock was added, the anisotropy change was measured after a 5-minute equilibration. We assume that the direct titration follows a simple binding equilibrium between Ligand (L) and Receptor (R)
[formula] […]

Helicobacter pylori = conditions: literature citation 29; cited from earlier work

Substance: Moenomycin A [Compound 1]
- MIC (Shigella flexneri): 40 µM
- MIC (Escherichia coli): 80 µM
- MIC (Bordetella pertussis): 0.011 to 0.021 µM
- Kd [1]: 276 ± 14 nM
- Reported values MIC (Helicobacter pylori): 1.3 µM
